Assay results reported in patent US20250215030A1, “STAT MODULATORS AND USES THEREOF” (Recludix Pharma, Inc., priority 2022, published 2025).

molecular target: T1, pSTAT3 (pY705-STAT3) (Homo sapiens, UniProt P40763); assay: MSD-pSTAT-PBMC Assay (pSTAT3, IL-6 stimulated); format: cell-based; details: not given
T1 construct: host or cells: cryopreserved PBMC
Outline: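 Phospho-STAT levels captured on anti-STAT3 or anti-STAT6 plates and detected with anti-pY705 or anti-pY641 antibodies (MSD read-out). Cryopreserved human PBMCs received compound for 3 h before a 10 min pulse of IL-6 (10 ng/mL, STAT3) or IL-4 (1 ng/mL, STAT6). IC50 fitted after unstimulated-background subtraction and DMSO normalization.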

T1 sequence (P40763 whole entry): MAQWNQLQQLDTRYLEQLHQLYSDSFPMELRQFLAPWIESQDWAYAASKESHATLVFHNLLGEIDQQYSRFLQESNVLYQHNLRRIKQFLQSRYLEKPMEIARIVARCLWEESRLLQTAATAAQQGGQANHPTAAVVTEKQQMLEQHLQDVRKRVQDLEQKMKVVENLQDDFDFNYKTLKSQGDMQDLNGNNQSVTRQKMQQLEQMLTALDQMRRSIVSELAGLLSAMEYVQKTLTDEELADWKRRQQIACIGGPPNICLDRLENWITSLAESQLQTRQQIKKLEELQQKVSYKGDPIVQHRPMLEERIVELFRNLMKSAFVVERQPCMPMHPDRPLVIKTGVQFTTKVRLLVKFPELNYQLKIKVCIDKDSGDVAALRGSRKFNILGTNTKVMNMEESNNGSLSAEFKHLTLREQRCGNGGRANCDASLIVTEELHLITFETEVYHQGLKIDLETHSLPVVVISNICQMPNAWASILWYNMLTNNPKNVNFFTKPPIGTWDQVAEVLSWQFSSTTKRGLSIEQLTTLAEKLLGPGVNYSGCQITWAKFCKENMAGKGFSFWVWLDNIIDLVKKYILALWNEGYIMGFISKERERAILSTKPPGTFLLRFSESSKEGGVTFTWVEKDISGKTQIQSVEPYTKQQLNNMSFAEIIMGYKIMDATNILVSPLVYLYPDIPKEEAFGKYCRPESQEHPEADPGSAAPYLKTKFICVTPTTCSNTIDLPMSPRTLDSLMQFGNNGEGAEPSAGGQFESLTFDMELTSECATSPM

SMILES	IC50
CCCOC(=O)[C@H](COC)NP(=O)(Oc1ccccc1)C(F)c1ccc2sc(C(=O)N[C@H]3C[C@@H]4C[C@@H]4C[C@H]4CC[C@@H](C(=O)N5CC(c6cnccc6C)C5)N4C3=O)cc2c1 (stereo partly drawn) [Compound 284, propyl N-((fluoro(2-(((3S,6S,7aS,8aR,9aR)-3-(3-(4-methylpyridin-3-yl)azetidine-1-carbonyl)-5-oxodecahydro-1H-cyclopropa[d]pyrrolo[1,2-a]azocin-6-yl)carbamoyl)benzo[b]thiophen-5-yl)methyl)(phenoxy)phosphoryl)-O-methyl-L-serinate]	< 100 nM
CCCOC(=O)[C@H](C)NP(=O)(Oc1ccccc1)[C@H](F)c1ccc2sc(C(=O)N[C@H]3C[C@@H]4C[C@@H]4C[C@H]4CC[C@@H](C(=O)N5CC(c6cnccc6N6CCOCC6)C5)N4C3=O)cc2c1 (stereo partly drawn) [Compound 413, propyl(((S)-fluoro(2-(((3S,6S,7aS,8aR,9aR)-3-(3-(4-morpholinopyridin-3-yl)azetidine-1-carbonyl)-5-oxodecahydro-1H-cyclopropa[d]pyrrolo[1,2-a]azocin-6-yl)carbamoyl)benzo[b]thiophen-5-yl)methyl)(phenoxy)phosphoryl)-L-alaninate]	< 100 nM
CCCOC(=O)[C@H](C)NP(=O)(Oc1ccccc1)C(F)c1ccc2sc(C(=O)N[C@H]3C[C@@H]4C[C@@H]4C[C@H]4CC[C@@H](C(=O)N5CC(c6cncnc6N6CCC6)C5)N4C3=O)cc2c1 (stereo partly drawn) [Compound 412, propyl(((S)-(2-(((3S,6S,7aS,8aR,9aR)-3-(3-(4-(azetidin-1-yl)pyrimidin-5-yl)azetidine-1-carbonyl)-5-oxodecahydro-1H-cyclopropa[d]pyrrolo[1,2-a]azocin-6-yl)carbamoyl)benzo[b]thiophen-5-yl)fluoromethyl)(phenoxy)phosphoryl)-L-alaninate]	< 100 nM
CCCOC(=O)[C@@H](C)NP(=O)(Cc1ccc2sc(C(=O)N[C@H]3C[C@H]4C[C@H]4C[C@H]4CC[C@@H](C(=O)N5CC(c6cnccc6C)C5)N4C3=O)cc2c1)Oc1ccccc1 (stereo in doubt) [Compound 242, propyl(((2-(((3S,6S,7aR,8aS,9aR)-3-(3-(4-methylpyridin-3-yl)azetidine-1-carbonyl)-5-oxodecahydro-1H-cyclopropa[d]pyrrolo[1,2-a]azocin-6-yl)carbamoyl)benzo[b]thiophen-5-yl)methyl)(phenoxy)phosphoryl)-L-alaninate]	< 100 nM
CCCOC(=O)[C@H](C)NP(=O)(Oc1ccccc1)C(F)c1ccc2sc(C(=O)N[C@H]3C[C@@H]4C[C@@H]4C[C@H]4CC[C@@H](C(=O)N5CC(c6cnccc6N6CCN(C)CC6)C5)N4C3=O)cc2c1 (stereo partly drawn) [Compound 424, propyl(((R)-fluoro(2-(((3S,6S,7aS,8aR,9aR)-3-(3-(4-(4-methylpiperazin-1-yl)pyridin-3-yl)azetidine-1-carbonyl)-5-oxodecahydro-1H-cyclopropa[d]pyrrolo[1,2-a]azocin-6-yl)carbamoyl)benzo[b]thiophen-5-yl)methyl)(phenoxy)phosphoryl)-L-alaninate]	100 to 1000 nM

same assay, conditions: PBMC, compound 3 hrs, then 10 ng/mL IL-6 for 10 min; MSD pY705-STAT3; read-out: pSTAT3

SMILES	IC50
CC(C)OC(=O)[C@H](C)NP(=O)(Cc1ccc2sc(C(=O)N[C@H]3C[C@@H]4C[C@@H]4C[C@H]4CC[C@@H](C(=O)N5CC(C(=O)N6CCOCC6)C5)N4C3=O)cc2c1)OCC(F)(F)F (stereo partly drawn) [Compound 200, isopropyl (((2-(((3S,6S,7aS, 8aR,9aR)-3-(3-(morpholine-4-carbonyl)azetidine-1-carbonyl)-5-oxodecahydro-1H-cyclopropa [d]pyrrolo[1,2-a]azocin-6-yl)carbamoyl)benzo[b]thiophen-5-yl)methyl) (2,2,2-trifluoroethoxy)phosphoryl)-L-alaninate]	100 to 1000 nM
CCCOC(=O)[C@H](C)NP(=O)(Oc1ccccc1)C(F)c1ccc2sc(C(=O)N[C@H]3C[C@@H]4C[C@@H]4C[C@H]4CC[C@@H](C(=O)N5CC(CS(C)(=O)=O)C5)N4C3=O)cc2c1 (stereo partly drawn) [Compound 363, propyl ((fluoro(2-(((3S,6S,7aS,8aR,9aR)-3-(3-((methylsulfonyl)methyl)azetidine-1-carbonyl)-5-oxodecahydro-1H-cyclopropa[d]pyrrolo[1,2-a]azocin-6-yl)carbamoyl)benzo[b]thiophen-5-yl)methyl)(phenoxy)phosphoryl)-L-alaninate]	100 to 1000 nM
CCCOC(=O)[C@H](C)NP(=O)(Oc1ccccc1)C(F)c1ccc2sc(C(=O)N[C@H]3C[C@@H]4C[C@@H]4C[C@H]4CC[C@@H](C(=O)N5CC(c6cc(OC)no6)C5)N4C3=O)cc2c1 (stereo partly drawn) [Compound 362, propyl ((fluoro(2-(((3S,6S,7aS,8aR,9aR)-3-(3-(3-methoxyisoxazol-5-yl)azetidine-1-carbonyl)-5-oxodecahydro-1H-cyclopropa[d]pyrrolo[1,2-a]azocin-6-yl)carbamoyl)benzo[b]thiophen-5-yl)methyl)(phenoxy)phosphoryl)-L-alaninate]	< 100 nM
CCCOC(=O)[C@H](C)NP(=O)(Cc1ccc2sc(C(=O)N[C@H]3C[C@@H]4C[C@@H]4C[C@H]4CC[C@@H](C(=O)N5CC(c6cnccc6C)C5)N4C3=O)cc2c1)OCC(F)(F)F (stereo partly drawn) [Compound 311, propyl(((2-(((3S,6S,7aS,8aR,9aR)-3-(3-(4-methylpyridin-3-yl)azetidine-1-carbonyl)-5-oxodecahydro-1H-cyclopropa[d]pyrrolo[1,2-a]azocin-6-yl)carbamoyl)benzo[b]thiophen-5-yl)methyl)(2,2,2-trifluoroethoxy)phosphoryl)-L-alaninate]	< 100 nM
CCCOC(=O)[C@H](C)NP(=O)(Oc1ccccc1)C(F)c1ccc2sc(C(=O)N[C@H]3C[C@H]4C[C@H]4C[C@H]4CC[C@@H](C(=O)N[C@H]5CN(c6cccnc6)C[C@@H]5F)N4C3=O)cc2c1 (stereo partly drawn) [Compound 268, propyl ((fluoro(2-(((3S,6S,7aR,8aS,9aR)-3-(((3S,4S)-4-fluoro-1-(pyridin-3-yl)pyrrolidin-3-yl)carbamoyl)-5-oxodecahydro-1H-cyclopropa[d]pyrrolo[1,2-a]azocin-6-yl)carbamoyl)benzo[b]thiophen-5-yl)methyl)(phenoxy)phosphoryl)-L-alaninate]	< 100 nM
CCCOC(=O)[C@H](C)NP(=O)(Oc1ccccc1)C(F)c1ccc2sc(C(=O)N[C@H]3C[C@H]4C[C@H]4C[C@H]4CC[C@@H](C(=O)N5CC(c6cnccc6F)C5)N4C3=O)cc2c1 (stereo partly drawn) [Compound 249, propyl ((fluoro(2-(((3S,6S,7aR,8aS,9aR)-3-(3-(4-fluoropyridin-3-yl)azetidine-1-carbonyl)-5-oxodecahydro-1H-cyclopropa[d]pyrrolo[1,2-a]azocin-6-yl)carbamoyl)benzo[b]thiophen-5-yl)methyl)(phenoxy)phosphoryl)-L-alaninate]	< 100 nM
CCCOC(=O)[C@H](C)N[P@@](=O)(Oc1ccccc1)[C@@H](F)c1ccc2sc(C(=O)N[C@H]3C[C@@H]4C[C@@H]4C[C@H]4CC[C@@H](C(=O)N5CC(c6cnccc6N(C)C)C5)N4C3=O)cc2c1 [Compound 414, propyl((S)-((R)-(2-(((3S,6S,7aS,8aR,9aR)-3-(3-(4-(dimethylamino)pyridin-3-yl)azetidine-1-carbnyl)-5-oxodecahydro-1H-cyclopropa[d]pyrrolo[1,2-a]azocin-6-yl)carbamoyl)benzo[b]thiophen-5-yl)fluoromethyl)(phenoxy)phosphoryl)-L-alaninate]	< 100 nM
CCCOC(=O)C(C)(C)NP(=O)(Oc1ccccc1)C(F)c1ccc2sc(C(=O)N[C@H]3C[C@@H]4C[C@@H]4C[C@H]4CC[C@@H](C(=O)N5CC(c6cnccc6C)C5)N4C3=O)cc2c1 (stereo partly drawn) [Compound 285, propyl 2-(((fluoro(2-(((3S,6S,7aS,8aR,9aR)-3-(3-(4-methylpyridin-3-yl)azetidine-1-carbonyl)-5-oxodecahydro-1H-cyclopropa[d]pyrrolo[1,2-a]azocin-6-yl)carbamoyl)benzo[b]thiophen-5-yl)methyl)(phenoxy)phosphoryl)amino)-2-methylpropanoate]	< 100 nM
CCCOC(=O)[C@H](C)NP(=O)(Oc1ccccc1)C(F)c1ccc2sc(C(=O)N[C@H]3C[C@@H]4C[C@@H]4C[C@H]4CC[C@@H](C(=O)N5CC(c6cc(C)on6)C5)N4C3=O)cc2c1 (stereo partly drawn) [Compound 359, propyl ((fluoro(2-(((3S,6S,7aS,8aR,9aR)-3-(3-(5-methylisoxazol-3-yl)azetidine-1-carbonyl)-5-oxodecahydro-1H-cyclopropa[d]pyrrolo[1,2-a]azocin-6-yl)carbamoyl)benzo[b]thiophen-5-yl)methyl)(phenoxy)phosphoryl)-L-alaninate]	< 100 nM
CC(C)CC(=O)SCCOP(=O)(OCCSC(=O)CC(C)C)C(F)(F)c1ccc2sc(C(=O)N[C@H]3C[C@@H]4C[C@@H]4C[C@H]4CC[C@@H](C(=O)N5CC(c6ncccn6)C5)N4C3=O)cc2c1 [Compound 229, S,S′-((((difluoro(2-(((3S,6S,7aS, 8aR,9aR)-5-oxo-3-(3-(pyrimidin-2-yl)azetidine-1-carbonyl)decahydro-1H-cyclopropa[d]pyrrolo[1,2-a]azocin-6-yl)carbamoyl)benzo[b]thiophen-5-yl)methyl)phosphoryl)bis(oxy))bis(ethane-2,1-diyl)) bis(3-methylbutane thioate)]	< 100 nM
CC(C)CC(=O)SCCOP(=O)(N[C@@H](C)C(=O)OCc1ccccc1)C(F)(F)c1ccc2sc(C(=O)N[C@H]3C[C@@H]4C[C@@H]4C[C@H]4CC[C@@H](C(=O)N5CC(C(=O)N6CCOCC6)C5)N4C3=O)cc2c1 (stereo partly drawn) [Compound 164, benzyl ((difluoro(2-(((3S,6S,7aS, 8aR,9aR)-3-(3-(morpholine-4-carbonyl)azetidine-1-carbonyl)-5-oxodecahydro-1H-cyclopropa [d]pyrrolo[1,2-a]azocin-6-yl)carbamoyl)benzo[b]thiophen-5-yl)methyl)(2-((3-methyl-butanoyl)thio)ethoxy)phosphoryl)-L-alaninate]	> 3000 nM
